Experiments:
[1] = target: T1, 380 human recombinant protein kinases (Homo sapiens, UniProt P07333); assay: Eurofins kinase selectivity profile against 380 other human recombinant kinases (Table S2); format: biochemical; conditions: Fms(h), read-out: Inhibition rate
T1 construct: purchased Eurofins (Celle Lévescault)
Description: (§1) Subsequently, to ascertain whether the high potency of compound 11 was specific for MK2, an additional 380 human recombinant protein kinases were screened.
(§2) To assess the impact of various compounds on MK2 kinase activity, we utilized the ADP‐Glo Assay Kit (Promega) following the manufacturer's instructions. Luminescence measurements were taken using a SpectraMax Paradigm reader. The inhibition percentage was calculated using the following formula: ((specific signalDMSO control − specific signal inhibitor)/(specific signalDMSO control)) × 100%. The IC50 values were determined employing dose–response curve fitting via Prism (Graph Pad). Additionally, Eurofins company (Celle Lévescault) conducted the analysis on compound 11’s inhibitory activity against 380 other human recombinant kinases at various concentrations.

[2] = target: T2, 380 human recombinant protein kinases (Homo sapiens, UniProt P07949); assay: as above; format: biochemical; conditions: Ret(h), read-out: Inhibition rate
T2 construct: purchased Eurofins (Celle Lévescault)
T2 sequence (P07949 29-1114): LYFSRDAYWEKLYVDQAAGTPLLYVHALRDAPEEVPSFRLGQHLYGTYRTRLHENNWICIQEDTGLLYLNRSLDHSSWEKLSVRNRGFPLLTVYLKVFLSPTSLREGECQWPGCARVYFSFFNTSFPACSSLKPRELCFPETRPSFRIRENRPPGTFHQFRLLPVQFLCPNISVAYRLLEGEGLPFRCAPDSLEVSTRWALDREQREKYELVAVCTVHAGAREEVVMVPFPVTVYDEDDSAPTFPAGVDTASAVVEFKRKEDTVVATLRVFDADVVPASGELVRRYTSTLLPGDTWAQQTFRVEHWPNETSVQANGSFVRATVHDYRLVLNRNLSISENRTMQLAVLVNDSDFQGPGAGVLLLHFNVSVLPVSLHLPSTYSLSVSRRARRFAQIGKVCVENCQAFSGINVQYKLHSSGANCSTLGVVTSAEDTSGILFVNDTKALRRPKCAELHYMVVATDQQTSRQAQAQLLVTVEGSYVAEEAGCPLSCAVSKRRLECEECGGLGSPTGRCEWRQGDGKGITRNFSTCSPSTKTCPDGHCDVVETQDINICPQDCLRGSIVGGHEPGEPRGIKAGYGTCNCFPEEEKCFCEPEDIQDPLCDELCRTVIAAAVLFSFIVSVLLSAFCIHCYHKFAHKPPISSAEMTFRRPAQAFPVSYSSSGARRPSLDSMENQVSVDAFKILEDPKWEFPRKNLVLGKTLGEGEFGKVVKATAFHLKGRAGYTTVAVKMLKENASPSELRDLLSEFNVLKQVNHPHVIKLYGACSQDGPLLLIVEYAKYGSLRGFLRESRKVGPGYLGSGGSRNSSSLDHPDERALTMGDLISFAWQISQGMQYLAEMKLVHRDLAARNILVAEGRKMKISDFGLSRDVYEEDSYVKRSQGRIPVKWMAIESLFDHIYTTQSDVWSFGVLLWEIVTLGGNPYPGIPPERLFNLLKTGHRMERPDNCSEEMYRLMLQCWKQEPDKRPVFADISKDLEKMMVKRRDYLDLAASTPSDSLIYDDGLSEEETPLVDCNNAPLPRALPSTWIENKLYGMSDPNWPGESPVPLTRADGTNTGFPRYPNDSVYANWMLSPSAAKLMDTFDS
Description: as §1, §2

[3] = target: T3, 380 human recombinant protein kinases (Homo sapiens, UniProt P45983); assay: as above; format: biochemical; conditions: JNK1α1(h), read-out: Inhibition rate
T3 construct: purchased Eurofins (Celle Lévescault)
T3 sequence (P45983 whole entry): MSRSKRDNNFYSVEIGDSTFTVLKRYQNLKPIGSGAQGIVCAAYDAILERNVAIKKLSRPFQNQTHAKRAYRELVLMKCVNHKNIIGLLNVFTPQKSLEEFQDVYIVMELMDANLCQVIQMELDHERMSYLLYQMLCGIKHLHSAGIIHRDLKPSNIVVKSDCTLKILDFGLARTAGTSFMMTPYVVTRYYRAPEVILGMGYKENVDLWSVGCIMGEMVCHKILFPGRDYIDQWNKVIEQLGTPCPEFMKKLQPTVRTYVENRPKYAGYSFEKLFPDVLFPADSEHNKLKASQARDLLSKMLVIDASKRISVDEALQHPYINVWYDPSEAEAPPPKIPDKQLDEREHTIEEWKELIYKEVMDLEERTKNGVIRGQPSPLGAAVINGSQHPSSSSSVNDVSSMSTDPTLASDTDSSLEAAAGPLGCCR
Description: as §1, §2

[4] = target: T4, 380 human recombinant protein kinases (Homo sapiens, UniProt Q00537); assay: as above; format: biochemical; conditions: CDK17/cyclinY(h), read-out: Inhibition rate
T4 construct: purchased Eurofins (Celle Lévescault)
T4 sequence (Q00537 whole entry): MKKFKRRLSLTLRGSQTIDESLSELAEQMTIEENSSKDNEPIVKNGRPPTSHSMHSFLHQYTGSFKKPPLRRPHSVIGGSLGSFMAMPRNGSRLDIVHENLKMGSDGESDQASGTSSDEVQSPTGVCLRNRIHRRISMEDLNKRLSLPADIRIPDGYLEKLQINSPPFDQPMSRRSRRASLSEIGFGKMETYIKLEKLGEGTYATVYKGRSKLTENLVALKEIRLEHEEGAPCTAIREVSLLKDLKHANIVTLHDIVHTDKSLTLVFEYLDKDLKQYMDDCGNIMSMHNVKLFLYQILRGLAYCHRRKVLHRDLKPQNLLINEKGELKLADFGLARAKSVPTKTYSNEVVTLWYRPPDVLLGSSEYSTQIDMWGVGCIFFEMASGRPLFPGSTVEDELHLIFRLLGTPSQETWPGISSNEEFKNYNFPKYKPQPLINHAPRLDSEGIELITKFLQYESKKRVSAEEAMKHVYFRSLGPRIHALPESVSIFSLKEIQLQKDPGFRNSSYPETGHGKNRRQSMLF
Description: as §1, §2

[5] = target: T5, 380 human recombinant protein kinases (Homo sapiens, UniProt Q9P286); assay: as above; format: biochemical; conditions: PAK5(h), read-out: Inhibition rate
T5 construct: purchased Eurofins (Celle Lévescault)
T5 sequence (Q9P286 whole entry): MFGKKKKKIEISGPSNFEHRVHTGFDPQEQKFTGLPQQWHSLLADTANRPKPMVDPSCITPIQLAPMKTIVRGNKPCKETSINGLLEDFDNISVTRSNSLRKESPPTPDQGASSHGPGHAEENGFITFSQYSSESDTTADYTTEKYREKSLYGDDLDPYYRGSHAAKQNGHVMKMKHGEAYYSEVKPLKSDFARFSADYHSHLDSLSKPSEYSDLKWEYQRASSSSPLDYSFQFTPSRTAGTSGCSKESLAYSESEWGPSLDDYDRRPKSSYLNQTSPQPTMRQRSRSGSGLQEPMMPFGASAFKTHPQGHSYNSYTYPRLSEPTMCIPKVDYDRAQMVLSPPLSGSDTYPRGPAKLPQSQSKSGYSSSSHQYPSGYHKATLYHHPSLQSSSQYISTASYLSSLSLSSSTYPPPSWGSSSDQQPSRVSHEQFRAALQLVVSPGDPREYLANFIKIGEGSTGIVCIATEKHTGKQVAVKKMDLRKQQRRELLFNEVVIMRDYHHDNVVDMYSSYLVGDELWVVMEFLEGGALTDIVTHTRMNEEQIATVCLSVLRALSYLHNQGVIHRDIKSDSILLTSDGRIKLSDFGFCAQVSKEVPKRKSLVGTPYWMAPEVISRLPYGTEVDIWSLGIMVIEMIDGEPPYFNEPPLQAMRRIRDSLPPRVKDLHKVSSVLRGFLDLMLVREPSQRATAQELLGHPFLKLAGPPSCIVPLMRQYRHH
Description: as §1, §2

[6] = target: T6, 380 human recombinant protein kinases (Homo sapiens, UniProt Q9Y6E0); assay: as above; format: biochemical; conditions: MST3(h), read-out: Inhibition rate
T6 construct: purchased Eurofins (Celle Lévescault)
T6 sequence (Q9Y6E0 whole entry): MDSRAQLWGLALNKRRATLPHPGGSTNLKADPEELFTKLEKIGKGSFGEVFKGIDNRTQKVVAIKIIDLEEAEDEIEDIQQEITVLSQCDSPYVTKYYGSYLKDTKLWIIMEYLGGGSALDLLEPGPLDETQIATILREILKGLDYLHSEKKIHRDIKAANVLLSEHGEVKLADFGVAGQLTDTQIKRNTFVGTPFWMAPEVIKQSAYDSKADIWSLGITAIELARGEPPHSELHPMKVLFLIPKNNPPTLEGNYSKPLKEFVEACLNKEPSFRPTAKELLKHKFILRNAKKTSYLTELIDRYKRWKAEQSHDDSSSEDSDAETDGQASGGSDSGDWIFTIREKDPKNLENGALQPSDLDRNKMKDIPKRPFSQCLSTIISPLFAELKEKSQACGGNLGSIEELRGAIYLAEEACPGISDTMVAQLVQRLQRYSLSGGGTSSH
Description: as §1, §2

p70S6Kb = target: T7, p70S6Kb (Homo sapiens, UniProt Q9UBS0); assay: Eurofins kinase selectivity profile, p70S6Kb; format: biochemical
T7 construct: purchased Eurofins (Celle Lévescault)
T7 sequence (Q9UBS0 whole entry): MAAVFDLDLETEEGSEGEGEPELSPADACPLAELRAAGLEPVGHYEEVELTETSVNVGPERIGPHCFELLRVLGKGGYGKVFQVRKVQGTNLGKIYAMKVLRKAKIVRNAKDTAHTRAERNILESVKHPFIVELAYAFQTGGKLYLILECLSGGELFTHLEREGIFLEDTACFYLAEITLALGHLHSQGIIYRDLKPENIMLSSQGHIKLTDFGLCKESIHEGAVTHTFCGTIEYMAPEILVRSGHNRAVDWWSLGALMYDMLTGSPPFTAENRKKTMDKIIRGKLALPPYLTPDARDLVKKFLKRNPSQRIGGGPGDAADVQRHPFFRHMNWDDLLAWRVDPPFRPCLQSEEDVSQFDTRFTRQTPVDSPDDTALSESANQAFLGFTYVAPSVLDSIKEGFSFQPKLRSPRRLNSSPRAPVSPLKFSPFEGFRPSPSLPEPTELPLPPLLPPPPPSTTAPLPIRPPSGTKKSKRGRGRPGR
Description: as §1, §2

[7] = tested on: CD206 and Arg-1 expression in BMDM; assay: Flow cytometry of CD206 and Arg-1 in IL-4/IL-13 stimulated BMDM; format: cell-based, mouse; conditions: IL-4/IL-13, 48 h
Source text: A previous study has reported that MK2 fostered M2‐like polarization of TAMs, driving a protumor and proangiogenic phenotype which in turn accelerates tumor progression.[21] We thus assessed the influence of compound 11 on macrophage polarization and function. Our experiments used human THP‐1 monocyte induced macrophages, mouse RAW264.7 macrophages, and mouse bone marrow‐derived macrophages (BMDM). These cells were induced into M2‐like macrophages using the classic IL‐4 and IL‐13 stimuli.
FIGURE 5 Inhibition of pro‐tumorigenic M2‐like polarization in macrophages by compound 11. (A–C) RT‐PCR analysis highlights the impact of compound 11 on MRC1 and ARG‐1 mRNA expression in various macrophage cells treated with IL‐4/IL‐13 alone or combined with compound 11 for 12 h or 24 h. (D) CD206 and Arg‐1 expression in bone marrow‐derived macrophages (BMDM) cells via flow cytometry post 48 h treatment of compound 11 and IL‐4/IL‐13. (E) The treatment effects of compound 11 in THP‐1 cells using western blot analysis. Cells were pretreated with compound 11 for 1 h and followed by IL‐4/IL‐13 treatment (30 min). (F) The influence of MK2 siRNA on MRC1 and ARG‐1 mRNA expression in THP‐1 cells by RT‐PCR analysis post‐IL‐4/IL‐13 stimulation (12 h). […] Data are shown as the mean ± SD. ^* p < 0.05; ^*** p < 0.001 versus the vehicle group, determined by unpaired t test. […]

[8] = Cell viability assay (CCK-8), MC38; format: cell-based; conditions: mouse, MC38 cells (colorectal carcinoma), MC38, murine colorectal carcinoma, read-out: IC50 (μM) mean ± SD, cytotoxicity
Description: (§3) In cellular experiments, cells are seeded into either 6-well or 96-well plates and incubated overnight, proceeding with treatments as described in the figure legends or methods section. The cell inoculation numbers are outlined as follows: For assays measuring cell viability, between 3,000 to 5,000 cells are seeded per well in 96-well plates. For other cellular assays, the seeding density ranges from 5×10^5 to 1×10^6 cells per well in 6-well plates.
(§4) Cells was plated into 96-well plates and incubated overnight prior to introduction of varying concentrations of compounds or control solvent. Following a 72-hour exposure period, cell viability was determined using a Cell Counting Kit-8 assay (Life-iLab, China). Dose-response curves were fitted using a four-parameter method facilitated by SoftMax Pro, which was subsequently used for the computation of IC50 values.

[9] = Cell viability assay (CCK-8), H1437; format: cell-based; conditions: H1437 cells (non-small cell lung carcinoma), H1437, human non-small cell lung carcinoma, read-out: IC50 (μM) mean ± SD, cytotoxicity
Description: as §3, §4

T1 sequence (P07333 20-972): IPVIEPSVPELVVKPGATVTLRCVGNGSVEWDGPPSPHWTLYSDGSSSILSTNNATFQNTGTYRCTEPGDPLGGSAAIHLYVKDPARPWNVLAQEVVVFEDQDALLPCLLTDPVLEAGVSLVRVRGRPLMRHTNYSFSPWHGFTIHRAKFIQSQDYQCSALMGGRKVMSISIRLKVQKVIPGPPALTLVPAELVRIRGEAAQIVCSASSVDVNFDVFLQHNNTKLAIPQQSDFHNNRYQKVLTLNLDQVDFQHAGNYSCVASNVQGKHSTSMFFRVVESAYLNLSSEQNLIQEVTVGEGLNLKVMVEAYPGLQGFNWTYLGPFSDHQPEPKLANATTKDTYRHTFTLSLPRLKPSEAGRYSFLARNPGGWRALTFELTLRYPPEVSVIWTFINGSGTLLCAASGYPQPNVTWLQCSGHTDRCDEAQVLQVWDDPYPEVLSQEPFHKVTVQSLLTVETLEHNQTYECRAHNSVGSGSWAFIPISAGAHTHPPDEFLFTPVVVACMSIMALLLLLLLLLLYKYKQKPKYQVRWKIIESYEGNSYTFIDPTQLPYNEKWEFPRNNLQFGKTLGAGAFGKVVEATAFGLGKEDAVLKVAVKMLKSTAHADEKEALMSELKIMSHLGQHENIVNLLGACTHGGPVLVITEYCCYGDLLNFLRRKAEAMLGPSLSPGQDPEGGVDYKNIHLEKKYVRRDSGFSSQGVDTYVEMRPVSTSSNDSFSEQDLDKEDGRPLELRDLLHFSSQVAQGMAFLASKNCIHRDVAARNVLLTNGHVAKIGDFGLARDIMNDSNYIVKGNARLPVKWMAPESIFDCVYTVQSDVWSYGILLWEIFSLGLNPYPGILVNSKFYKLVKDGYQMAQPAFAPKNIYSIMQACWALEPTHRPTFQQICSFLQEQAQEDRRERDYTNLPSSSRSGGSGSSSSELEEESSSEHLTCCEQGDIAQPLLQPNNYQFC

SMILES: C=CC(=O)Nc1cc(-c2cc(-c3cc4c([nH]3)CCNC4=O)ccn2)ccc1OC(F)(F)F [compound 11]
- inhibition at 0.01 µM ([1]; 10 nM): -8%
- inhibition at 0.1 µM ([1]; 100 nM): -9%
- inhibition at 1 µM ([1]; 1000 nM): -6%
- inhibition at 0.01 µM ([2]; 10 nM): 12%
- inhibition at 0.1 µM ([2]; 100 nM): 2%
- inhibition at 1 µM ([2]; 1000 nM): 1%
- inhibition at 0.01 µM ([3]; 10 nM): 2%
- inhibition at 0.1 µM ([3]; 100 nM): 4%
- inhibition at 1 µM ([3]; 1000 nM): 21%
- inhibition at 0.01 µM ([4]; 10 nM): 13%
- inhibition at 0.1 µM ([4]; 100 nM): 19%
- inhibition at 1 µM ([4]; 1000 nM): 25%
- inhibition at 0.01 µM ([5]; 10 nM): -2%
- inhibition at 0.1 µM ([5]; 100 nM): -2%
- inhibition at 1 µM ([5]; 1000 nM): -2%
- inhibition at 0.01 µM ([6]; 10 nM): -6%
- inhibition at 0.1 µM ([6]; 100 nM): 2%
- inhibition at 1 µM ([6]; 1000 nM): 2%
- IC50 (p70S6Kb): > 1000 nM
- inhibition at 0.01 µM (p70S6Kb; p70S6K(h), 10 nM, read-out: Inhibition rate): -9%
- inhibition at 0.1 µM (p70S6Kb; p70S6K(h), 100 nM, read-out: Inhibition rate): -16%
- inhibition at 1 µM (p70S6Kb; p70S6K(h), 1000 nM, read-out: Inhibition rate): -6%
- effect on expression levels of surface CD206 and Arg-1 [7]: suppress
- IC50 at 72 h [8]: 48.3 ± 10.5 µM
- IC50 at 72 h [9]: 33.4 ± 0.6 µM
